Data published in publication PMC8568920, “Serum apolipoprotein A-I potentiates the therapeutic efficacy of lysocin E against Staphylococcus aureus” (Nature Communications, 2021).
≈ marks a conversion by molar mass, not a printed value. Where a SMILES comes first, the peptide text is derived from it. Bridges are numbered along the chain shown (N, C = ends). [ ]: non-standard residue; d: D form. The star is where a group is joined. Hexanoyl(3R-OH,5-Me) = CC(C)C[C@@H](O)CC(=O)*; dNMeF = CN[C@H](Cc1ccccc1)C(=O)O

How the values were obtained:
rhApoA-I ∆NM = molecular target: T1, rhApoA-I ∆NM (Homo sapiens, UniProt P02647, DEL170-184); test: Bio-layer interferometry, binding to rhApoA-I ∆NM variant; settings: BLI; biotinylated lysocin E on streptavidin biosensor; 2.5 µM protein
T1 construct: 1 65 146 160 185 243; made in house; host or cells: E. coli BL21(DE3)/pLysS, pET20b (pET-hApo∆NM)
T1 sequence (P02647 with tags, fused parts or gaps DEL170-184): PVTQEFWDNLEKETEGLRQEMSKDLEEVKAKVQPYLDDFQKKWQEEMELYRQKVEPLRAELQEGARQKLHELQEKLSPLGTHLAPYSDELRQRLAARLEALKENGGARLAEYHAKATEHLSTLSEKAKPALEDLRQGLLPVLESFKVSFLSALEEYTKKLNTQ
Protocol: Bio-layer interferometry (BLI) measurements were performed on a BLItz system (ForteBio, Fremont, CA, USA) maintained at room temperature. Kinetic analyses were performed using BLItz Pro ver. 1.2.1.5 (ForteBio). The biotinylated ligand, diluted to 0.1 mg ml^−1 in BLItz buffer (0.05% [v/v] Tween-20 in PBS), was immobilised on a streptavidin biosensor and the kinetic analysis was performed by running BLItz buffer for 300 s each, in the presence and absence of analyte for association and dissociation, respectively. Biotinylated menaquinone (5) and biotinylated lysocin E derivatives (3 and 4) were synthesised as described in the Supplementary Information (Supplementary Figs. 7–15).

in vitro = settings: human plasma
Protocol: (§1) The antimicrobial activities of the compounds were measured using the microdilution method. Measurement of the bactericidal activity of lysocin E (0.25 µg ml^−1) and nisin (2 µg ml^−1) with or without ApoA-I was performed according to the National Committee for Clinical Laboratory Standards method. […] For the ∆menA and ∆menB strains, TSB medium was used instead of cation-adjusted-Mueller Hinton broth (CA-MHB) in the microdilution method. Sera and ApoA-I, II were added to the bacterial culture before distributing them into 96-well plates. ApoA-I and ApoA-II antimicrobial activity were evaluated using the RN4220 strain. The protein binding rate of lysocin E against human plasma was determined by a rapid equilibrium dialysis device (Thermo Fisher Scientific, Waltham, MA, USA) according to the manufacturer’s instructions.

MRSA = test: microbe, parasite or virus in culture
Protocol: as §1

[1] = system: S. aureus (MRSA) JE2 (USA300)
Protocol: as §1

[2] = system: Bacillus subtilis JCM2499
Protocol: as §1

[3] = system: S. aureus (MRSA) MR4 (Clinical isolate)
Protocol: as §1

[4] = system: S. aureus Smith ATCC13709
Protocol: as §1

S. aureus (MRSA) MRSA4 = system: S. aureus (MRSA) MRSA4
Protocol: as §1

[5] = system: Staphylococcus pseudintermedius JCM17571
Protocol: as §1

[6] = system: S. aureus (MRSA) MR5 (Clinical isolate)
Protocol: as §1

Bacillus cereus JCM20037 = system: Bacillus cereus JCM20037
Protocol: as §1

S. aureus Newman = system: S. aureus Newman
Protocol: as §1

[7] = system: S. aureus (MRSA) MR6 (Clinical isolate)
Protocol: as §1

[8] = system: S. aureus (MRSA) MR2 (Clinical isolate)
Protocol: as §1

[9] = system: Staphylococcus haemolyticus JCM2416
Protocol: as §1

[10] = system: S. aureus (MRSA) MR1 (Clinical isolate)
Protocol: as §1

## CC[C@H](C)[C@@H]1NC(=O)[C@@H](Cc2c[nH]c3ccccc23)NC(=O)[C@@H](CCC(N)=O)NC(=O)[C@H](CCC(=O)O)NC(=O)[C@@H](CCCNC(=N)N)NC(=O)[C@H](CC(C)C)NC(=O)[C@@H](Cc2ccccc2)N(C)C(=O)CNC(=O)[C@H](CO)NC(=O)[C@@H](CCCNC(=N)N)NC(=O)[C@@H](NC(=O)C[C@H](O)CC(C)C)[C@@H](C)OC(=O)[C@H]([C@@H](C)O)NC1=O [Lysocin E, lysocin E] ({Hexanoyl(3R-OH,5-Me)}-T[dR]SG[dNMeF]L[dR]E[dQ][dW]IT; ester 1-C)
rhApoA-I ∆NM
  Kd: 5.6 µM
In vitro
  fraction unbound: < 0.01
MRSA
  Antimicrobial activity (MIC): 4 µg/mL
  MIC in 10% bovine serum: 0.063 µg/mL (≈ 0.0389 µM)
[1]
  MIC of lysocin E, Serum 0% (A): 4 µg/mL
  MIC of lysocin E, Serum 10% (B): 0.13 µg/mL
[2]
  MIC of lysocin E, Serum 0% (A): 2 µg/mL
  MIC of lysocin E, Serum 10% (B): 0.25 µg/mL
[3]
  MIC of lysocin E, Serum 0% (A): 4 µg/mL
  MIC of lysocin E, Serum 10% (B): 0.13 µg/mL
[4]
  MIC of lysocin E, Serum 0% (A): 2 µg/mL
  MIC of lysocin E, Serum 10% (B): 0.063 µg/mL
S. aureus (MRSA) MRSA4
  MIC of lysocin E, Serum 0% (A): 4 µg/mL
  MIC of lysocin E, Serum 10% (B): 0.25 µg/mL
[5]
  MIC of lysocin E, Serum 0% (A): 4 µg/mL
  MIC of lysocin E, Serum 10% (B): 0.13 µg/mL
[6]
  MIC of lysocin E, Serum 0% (A): 4 µg/mL
  MIC of lysocin E, Serum 10% (B): 0.13 µg/mL
Bacillus cereus JCM20037
  MIC of lysocin E, Serum 0% (A): 2 µg/mL
  MIC of lysocin E, Serum 10% (B): 0.50 µg/mL
S. aureus Newman
  MIC of lysocin E, Serum 0% (A): 4 µg/mL
  MIC of lysocin E, Serum 10% (B): 0.13 µg/mL
[7]
  MIC of lysocin E, Serum 0% (A): 4 µg/mL
  MIC of lysocin E, Serum 10% (B): 0.13 µg/mL
[8]
  MIC of lysocin E, Serum 0% (A): 2 µg/mL
  MIC of lysocin E, Serum 10% (B): 0.13 µg/mL
[9]
  MIC of lysocin E, Serum 0% (A): 2 µg/mL
  MIC of lysocin E, Serum 10% (B): 0.0078 µg/mL
[10]
  MIC of lysocin E, Serum 0% (A): 4 µg/mL
  MIC of lysocin E, Serum 10% (B): 0.13 µg/mL
